Tests used:
[1] = biological target: T1, CYP2D6 (Homo sapiens, UniProt P10635); test: CYP inhibition assay in human liver microsome; format: in vitro ADME; conditions: human liver microsomes, probe dextromethorphan, 10µM test compound, dextromethorphan substrate, <0: not or weak inhibitor, read-out: CYP 2D6 inhibition %@10µM
T1 construct: tissue BD-Gentest 452117; host or cells: human liver microsomes
Method: This is a high throughput screening assay used for assessment of reversible inhibition of CYP2D6 activity of test compounds in human liver microsome (HLM) in early discovery stage. Table 4. Chemicals and materials used in the CYP inhibition assay
10 mM DMSO stock solutions of test compounds were diluted in DMSO to generate 2 mM intermediate stock solution. 250 nL of intermediate stock solution were transferred in duplicate into 3 separate 384 well microtitre plates (assay-ready plates). A mixture of HLM and each substrate was made up. 45 µL of HLM substrate mix was then transferred to each well of an assay ready plate and mixed. The negative (solvent) and positive control (standard inhibitor for CYP 2D6) were included in each assay ready plate. The assay ready plate was warmed to 37 °C in an incubator over 10 minutes. 5 µL pre-warmed NADPH regenerating system was added to each incubation well to start the reaction. Final incubation volume was 50 µL. The assay plate then was placed back in the 37 °C incubator. After 10-minute incubation, incubates were quenched by addition of 50 µL 100% acetonitrile containing internal standards (20 ng/mL D3-Dextrorphan). The supernatants were collected for RapidFire/MS/MS analysis.
RapidFire online solid phase extraction/sample injection system (Agilent) coupled with API4000 triple quadrupole mass spectrometer (AB Sciex) were used for sample analysis. The mobile phase composed of acetonitrile and water supplemented with 0.1% formic acid. A C4 solid phase extraction cartridge is used for sample separation. MS detection is achieved in positive ion MRM mode.
Peak areas for substrate, metabolite and internal standard are determined using the RapidFire integrator software (version 3.6.12009.12296). Peak area ratios (PAR) of metabolite and internal standard (stable-labelled metabolite) are then calculated. The measurement window for each experiment is then defined: • PAR (0% activity)= average PAR for all incubations containing concentrated inhibitor; • Par (100% activity)= average PAR for all incubations containing no inhibitor (DMSO controls); • % Activity (test inhibitor) • =[PAR(test inhibitor)-PAR(0% activity)]/[PAR(100% activity)-PAR(0% activity)]; • % Inhibition (test inhibitor)=100-% Activity (test inhibitor).

[2] = biological target: T2, hTLR9 (Homo sapiens, UniProt Q9NR96); test: HEK293-Blue-hTLR-9 cells assay (SEAP reporter, ODN2006 stimulation); format: cell-based; design: host or cells: HEK293 (HEK-Blue); conditions: HEK293-Blue-hTLR9 cells, ODN2006, 20 hrs; read-out: HEK/hTLR9 IC50
T2 sequence (Q9NR96 26-1032): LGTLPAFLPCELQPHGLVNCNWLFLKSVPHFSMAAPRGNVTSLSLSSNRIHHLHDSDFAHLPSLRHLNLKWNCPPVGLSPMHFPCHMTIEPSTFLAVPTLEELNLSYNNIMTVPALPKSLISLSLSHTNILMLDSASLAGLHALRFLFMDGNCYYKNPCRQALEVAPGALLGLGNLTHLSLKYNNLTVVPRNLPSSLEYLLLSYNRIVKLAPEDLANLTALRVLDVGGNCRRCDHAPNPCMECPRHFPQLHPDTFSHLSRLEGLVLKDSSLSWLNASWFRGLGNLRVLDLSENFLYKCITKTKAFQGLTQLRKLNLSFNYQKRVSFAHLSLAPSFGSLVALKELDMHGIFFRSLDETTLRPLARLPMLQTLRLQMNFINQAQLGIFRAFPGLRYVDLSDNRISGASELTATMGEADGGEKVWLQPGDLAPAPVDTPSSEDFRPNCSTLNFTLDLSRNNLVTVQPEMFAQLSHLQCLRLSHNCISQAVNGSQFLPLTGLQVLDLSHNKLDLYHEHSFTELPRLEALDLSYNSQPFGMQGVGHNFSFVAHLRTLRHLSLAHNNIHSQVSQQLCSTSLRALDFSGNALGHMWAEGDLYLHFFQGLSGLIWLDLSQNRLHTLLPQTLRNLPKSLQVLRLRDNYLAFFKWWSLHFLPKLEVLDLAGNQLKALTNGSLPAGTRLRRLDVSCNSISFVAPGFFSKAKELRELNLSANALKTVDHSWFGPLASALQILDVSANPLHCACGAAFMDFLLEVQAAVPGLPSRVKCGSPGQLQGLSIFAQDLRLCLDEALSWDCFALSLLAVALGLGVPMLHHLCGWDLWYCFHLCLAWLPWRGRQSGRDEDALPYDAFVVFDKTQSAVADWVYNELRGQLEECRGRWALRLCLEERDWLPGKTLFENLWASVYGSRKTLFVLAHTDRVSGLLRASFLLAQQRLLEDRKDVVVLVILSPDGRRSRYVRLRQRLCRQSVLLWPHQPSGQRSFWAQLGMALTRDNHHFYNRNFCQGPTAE
Excerpt: A stable HEK293-Blue-hTLR-9 cell line was purchased from InvivoGen (Cat.#: hkb-htlr9, San Diego, California, USA). These cells were originally designed for studying the stimulation of human TLR9 by monitoring the activation of NF-κB. A SEAP (secreted embryonic alkaline phosphatase) reporter gene was placed under the control of the IFN-β minimal promoter fused to five NF-κB and AP-1-binding sites. The SEAP was induced by activating NF-κB and AP-1 via stimulating HEK-Blue hTLR9 cells with TLR9 ligands. Therefore, the reporter expression was declined by TLR9 antagonist under the stimulation of a ligand, such as ODN2006 (Cat.#: tlrl-2006-1, Invivogen, San Diego, California, USA), for incubation of 20 hrs. The cell culture supernatant SEAP reporter activity was determined using QUANTI-Blue™ kit (Cat.#: rep-qb 1, Invivogen, San Diego, California, USA) at a wavelength of 640 nm, a detection medium that turns purple or blue in the presence of alkaline phosphatase.
HEK293-Blue-hTLR9 cells were incubated at a density of 250,000-450,000 cells/mL in a volume of 170 µL in a 96-well plate in Dulbecco's Modified Eagle's medium (DMEM) containing 4.5 g/L glucose, 50 U/mL penicillin, […], […], 2 mM L-glutamine, 10% (v/v) heat-inactivated fetal bovine serum with addition of 20 µL test compound in a serial dilution in the presence of final DMSO at 1% and 10 µL of 20uM ODN2006 in above DMEM, perform incubation under 37 °C in a CO2 incubator for 20 hrs. Then 20 µL of the supernatant from each well was incubated with 180 µL Quanti-blue substrate solution at 37 °C for 2 hrs and the absorbance was read at 620-655 nm using a spectrophotometer. The signaling pathway that TLR9 activation leads to downstream NF-κB activation has been widely accepted, and therefore similar reporter assay was modified for evaluating TLR9 antagonist.

T1 sequence (P10635 whole entry): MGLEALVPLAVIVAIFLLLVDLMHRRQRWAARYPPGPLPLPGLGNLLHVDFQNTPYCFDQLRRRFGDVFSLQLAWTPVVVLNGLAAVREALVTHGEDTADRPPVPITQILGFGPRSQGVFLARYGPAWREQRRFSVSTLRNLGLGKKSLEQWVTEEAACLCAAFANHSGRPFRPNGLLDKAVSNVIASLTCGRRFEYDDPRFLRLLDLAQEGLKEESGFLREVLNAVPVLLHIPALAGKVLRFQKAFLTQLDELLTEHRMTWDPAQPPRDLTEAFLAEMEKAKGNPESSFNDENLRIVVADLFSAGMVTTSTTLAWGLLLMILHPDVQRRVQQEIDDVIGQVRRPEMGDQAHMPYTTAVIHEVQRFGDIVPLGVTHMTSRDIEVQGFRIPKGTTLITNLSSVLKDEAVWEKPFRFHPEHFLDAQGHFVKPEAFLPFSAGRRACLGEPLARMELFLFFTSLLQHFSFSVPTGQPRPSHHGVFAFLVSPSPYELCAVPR

Structure (SMILES)	inhibition at 10 min, 10 µM [1]	IC50 [2]
C[C@@H]1CN(c2ccc(C#N)c3ncccc23)C[C@H](CN2C[C@@H]3[C@@H](C2)OCCN3c2cnc3c(c2)CCNC3)O1 [Example 52, 5-[(2S,6R)-2-[[(4aR,7aR)-4-(5,6,7,8-tetrahydro-1,7-naphthyridin-3-yl)-2,3,4a,5,7,7a-hexahydropyrrolo[3,4-b][1,4]oxazin-6-yl]methyl]-6-methylmorpholin-4-yl]quinoline-8-carbonitrile]	5%	0.044 µM
C[C@@H]1CN(c2ccc(C#N)c3ncccc23)C[C@H](CN2CC3(C2)CN(c2cnc4c(c2)CNCC4)CCO3)O1 [Example 47, 5-[(2R,6S)-2-methyl-6-[[8-(5,6,7,8-tetrahydro-1,6-naphthyridin-3-yl)-5-oxa-2,8-diazaspiro[3.5]nonan-2-yl]methyl]morpholin-4-yl]quinoline-8-carbonitrile]	-21.5%	0.072 µM
C[C@@H]1CN(c2ccc(C#N)c3ncccc23)C[C@H](CN2CCCN(c3ncc4c(n3)CCNC4)CC2)O1 [Example 39, 5-[(2R,6S)-2-methyl-6-[[4-(5,6,7,8-tetrahydropyrido[4,3-d]pyrimidin-2-yl)-1,4-diazepan-1-yl]methyl]morpholin-4-yl]quinoline-8-carbonitrile]	8.5%	0.09 µM
C[C@@H]1CN(c2ccc(C#N)c3ncccc23)C[C@H](CN2CCN(c3cc4c(cn3)CCNC4)CC2)O1 [Example 20, 5-[(2R,6S)-2-methyl-6-[[4-(5,6,7,8-tetrahydro-2,6-naphthyridin-3-yl)piperazin-1-yl]methyl]morpholin-4-yl]quinoline-8-carbonitrile]	-5.5%	0.072 µM
C[C@@H]1CN(c2ccc(C#N)c3ncccc23)C[C@H](CN2CCC(Nc3ncc4c(n3)CCNC4)C2)O1 (stereo partly drawn) [Example 57, 5-[(2R,6S)-2-methyl-6-[[3-(5,6,7,8-tetrahydropyrido [4,3-d]pyrimidin-2-ylamino)pyrrolidin-1-yl]methyl]morpholin-4-yl] quinoline-8-carbonitrile]	-8%	0.036 µM
C[C@@H]1CN(c2ccc(C#N)c3ncccc23)C[C@H](CN2CCN(c3ccc4c(c3)CN(CCO)C4)CC2)O1 [Example 16, 5-[(2S,6R)-2-[[4-[2-(2-hydroxyethyl)isoindolin-5-yl]piperazin-1-yl]methyl]-6-methyl-morpholin-4-yl]quinoline-8-carbonitrile]	2.5%	0.091 µM
C[C@@H]1CN(c2ccc(C#N)c3ncccc23)C[C@H](CN2CCN(c3ccc4c(c3)CCNC4CO)CC2)O1 (stereo partly drawn) [Example 24, 5-[(2S,6R)-2-[[4-[1-(hydroxymethyl)-1,2,3,4-tetrahydroisoquinolin-6-yl]piperazin-1-yl]methyl]-6-methyl-morpholin-4-yl]quinoline-8-carbonitrile]	-9.5%	0.046 µM
C[C@@H]1CN(c2ccc(C#N)c3ncccc23)C[C@H](CN2CCN(c3cccc4c3CNC4)CC2)O1 [Example 2, 5-[(2S,6R)-2-[(4-isoindolin-4-ylpiperazin-1-yl)methyl]-6-methyl-morpholin-4-yl] quinoline-8-carbonitrile]	-5%	0.058 µM
C[C@@H]1CN(c2ccc(C#N)c3ncccc23)C[C@H](CN2CCN(c3cnc4c(c3)CNCC4)C(C)(C)C2)O1 [Example 56, 5-[(2S,6R)-2-[[3,3-dimethyl-4-(5,6,7,8-tetrahydro-1,6-naphthyridin-3-yl)piperazin-1-yl]methyl]-6-methyl-morpholin-4-yl]quinoline-8-carbonitrile]	-2.5%	0.168 µM
Cc1nc2c(nc1N1CCN(C[C@H]3CN(c4ccc(C#N)c5ncccc45)C[C@@H](C)O3)CC1)CCNC2 [Example 60, 5-[(2R,6S)-2-methyl-6-[[4-(3-methyl-5,6,7,8-tetrahydropyrido[3,4-b]pyrazin-2-yl)piperazin-1-yl]methyl]morpholin-4-yl]quinoline-8-carbonitrile]		0.156 µM
C[C@@H]1Cc2cc(N3CCN(C[C@H]4CN(c5ccc(C#N)c6ncccc56)C[C@@H](C)O4)CC3)ncc2CN1 (single isomer, unassigned) [Example 70]		0.083 µM

Continued, values first:

inhibition at 10 min, 10 µM [1]	IC50 [2]	Structure (SMILES)
5.5%	0.108 µM	C[C@@H]1CN(c2ccc(C#N)c3nccnc23)C[C@H](CN2CCN(c3ccc4c(n3)CN[C@@H]4C)CC2)O1 (single isomer, unassigned) [Example 79]
-1.5%	0.09 µM	C[C@@H]1CN(c2ccc(C#N)c3nccnc23)C[C@H](CN2CCN(c3cc4c(cn3)CN[C@@H](C)C4)CC2)O1 (single isomer, unassigned) [Example 84]
	7.03 µM	C[C@@H]1CN(c2ccc(C#N)c3ncccc23)C[C@H](CN2CCN(c3ccc(Cl)cc3)CC2)O1 [Example R2, 5-[(2S,6R)-2-[[4-(4-chlorophenyl)piperazin-1-yl]methyl]-6-methyl-morpholin-4-yl]quinoline-8-carbonitrile, reference compound]
	0.066 µM	C[C@@H]1CN(c2ccc(C#N)c3ncccc23)C[C@H](CN2CCN(c3cc4c(cn3)[C@H](C)NCC4)CC2)O1 (single isomer, unassigned) [Example 72]
	0.091 µM	C[C@@H]1CN(c2ccc(C#N)c3ncccc23)C[C@H](CN2CCN(c3cc4c(cn3)CN[C@@H](C)C4)CC2)O1 (single isomer, unassigned) [Example 71]

Source: patent publication EP3807270B1, “NOVEL HETEROARYL HETEROCYCLYL COMPOUNDS FOR THE TREATMENT OF AUTOIMMUNE DISEASE” (F. Hoffmann-La Roche AG, priority 2018, dated 2019)
